Test results as given in patent publication US11234982B2, “Methods for treating ocular surface pain” (NOVARTIS AG, priority 2019, dated 2022).
Several values for one entry are separate records, joined by “and”; a condition that tells them apart may be missing. Identical values can stand only once.

How the values were obtained:
[1] = test system: patients undergoing photorefractive keratectomy (PRK) surgery; experiment: PRK study: oral rescue medication (ORM) use; assay type: in vivo, human; settings: for Number of patients who did not use oral rescue medication: 2.5%; for Number of patients who did not use oral rescue medication / Amount of oral rescue medication (Number of pills), Mean (SD) / Amount of oral rescue medication (Number of pills), Range / Amount of oral rescue medication (mg/kg of body weight), Range / Amount of oral rescue medication (mg/kg of body weight), Mean (SD): N = 40; for Amount of oral rescue medication (mg/kg of body weight), Mean (SD): tablet counted as 330 mg
Experimental: The study was a proof of concept, double-masked, randomized, vehicle-controlled study of compound I administered as eye drops in addition to standard of care treatment in patients after PRK surgery. PRK surgery was performed as an outpatient procedure under topical anesthesia with removal of the corneal epithelium to expose the stroma for the laser ablation. Compound I dosing was as single eye drop of 2.5% (25 mg/ml, 0.925 mg/drop), administered four times daily (every six hours) in one eye from immediate post-op (time 0) to last dose at 72 hours.
Rescue medication consisted of oral analgesic (acetaminophen 300 mg+codeine 30 mg) as needed up to a total of 10 tabs/day or 1-2 tabs every 4 hours.
Rescue oral analgesics: It is not ethical to refuse pain control medication to patients postoperatively as part of a clinical trial. […] Because the use of oral rescue medication may be a potential confounder of the pain VAS evaluation, three approaches were used when analyzing pain VAS scores to account for the influence of pain meds (assuming 4 hours of rescue medication effect): (1) any recorded VAS score within 4 hours after use of rescue medication was considered missing; (2) all the recorded VAS scores was used; and (3) any recorded VAS scores within 4 hours after rescue medication use was imputed by the record taken prior to the rescue medication.

[2] = test system: corneal epithelial wound after PRK surgery; experiment: PRK study: size of epithelial defect by slit lamp exam (wound healing); assay type: in vivo, human
Source text: Adverse events and serious adverse events included an assessment of both systemic and ocular assessments. Systemic safety assessments included regular assessments of height and weight, vital signs, reporting medication errors including misuse/abuse, pregnancy reporting and early phase safety monitoring. The misuse/abuse, pregnancy reporting and early phase safety monitoring were not assessed for the study. Ocular safety assessments included the following: • Best-corrected visual acuity (BCVA) and uncorrected visual acuity (UCVA): Was measured at each visit using an ETDRS visual acuity chart at 4 meters (13 feet) or 1 meter (for patients that cannot read the 4 meter chart). The BCVA scoring was done based on the number of correctly read letters plus 30. If visual acuity was so poor that the patient could not read any of the largest letters at 1 meter, count fingers and hand movement vision and light perception was tested. • Intraocular Pressure (TOP): IOP measurements were conducted with applanation tonometry or Tonopen. • Dilated fundus exam: The dilated fundus examination included ophthalmoscopic assessments of the vitreous, retina/macula/choroid, and optic nerve. Evaluations for retinal tear/detachment, retinal hemorrhage, vitreous hemorrhage density, vitreous haze grading and abnormal findings were done and scored according to grading criteria. • Ocular hyperemia: Conjunctival redness of the bulbar conjunctiva in each eye at the slit lamp according to the McMonnies redness scale was graded. […] By adjusting the calibrated slit beam width and height, the maximum horizontal (wound width) and vertical dimensions (wound height) of the surgical epithelial wound was estimated. The evaluation was performed until wound closure and report of wound size as 0 horizontal and 0 vertical dimensions. • Slit-lamp biomicroscopy: Ocular signs (eyelids/conjunctiva, cornea, lens, and iris/anterior chamber) was assessed in both eyes by slit lamp biomicroscopy according to the grading criteria. • Blink rate: A blink was defined as a bilateral paroxysmal closure of the eyelids (duration<1 second) in the absence of a provoking external stimulus. Each blink assessment lasted for 2 min (or as close to 2 minutes as possible with minimum time 1 minute) and the obtained blink rate was averaged to calculate blink rate in blinks/min. • Tear production (Schirmer's test without anesthesia): The test was performed without anesthetic in both eyes simultaneously. Tear secretion was measured in millimeters of the length of strip wetted by tears. […] The strip was wetted with 1 drop of sterile saline and flicked to remove excess saline. The patient blinked several times to ensure dispersion of the dye throughout the tear film prior to grading on a scale of 0-3 (0=Normal, No staining; 1=Mild, Superficial stippling micropunctate staining; 2=Moderate, Macropunctate staining with some coalescent areas and 3=Severe, Numerous coalescent macropunctate areas and/or patches) for each of 5 zones (central plus 4 quadrants).
Size of epithelial defect by slit lamp exam: In order to assess the rate of wound healing after administration of compound I, the size of the epithelial defect in both compound I and Vehicle treated populations was measured. The elliptical area of epithelial wound size was calculated as follows: […], from the width and height of the epithelial defect measured at the slit lamp. The difference in epithelial wound area between compound I and Vehicle was not noticeably different at any time point except at Day 2 post-PRK surgery (all p-values for the difference in area was >0.35). On Day 2 (24 hours post-operative), the difference in average epithelial defect area between patients treated with compound I vs. Vehicle was 11.23 mm2 (p value=0.034). This difference was not clinically significant in the immediate post-operative period. […]

CC(C)c1nc2cc(O)ccc2c(=O)n1-c1ccc(C#N)cc1 [Compound I, 4-(7-hydroxy-2-isopropyl-4-oxo-4H-quinazolin-3-yl)-benzonitrile]
Amount of ORM (Number of pills), % Change (Compound I-Vehicle)/Vehicle ([1]; 0-6 hours post-operatively): −25%
Amount of ORM (mg/kg of body weight), % Change (Compound I-Vehicle)/Vehicle ([1]; 0-6 hours post-operatively): −25%
Number of patients who did not use oral rescue medication ([1]; 0-6 hours post-operatively): 23 (57.5%) n (%)
Amount of oral rescue medication (Number of pills), Mean (SD) ([1]; 0-6 hours post-operatively): 0.75 (1.032) Number of pills
Amount of oral rescue medication (Number of pills), Range ([1]; 0-6 hours post-operatively): 0.0-4.0 Number of pills
Amount of oral rescue medication (mg/kg of body weight), Range ([1]; 0-6 hours post-operatively): 0.0-19.2 mg/kg of body weight
Amount of oral rescue medication (mg/kg of body weight), Mean (SD) ([1]; 0-6 hours post-operatively): 3.32 (4.684) mg/kg of body weight
Number of patients who did not use ORM, compound I-treated eye compared to Vehicle-treated eye ([1]; 0-6 hours, 0-12 hours and 0-24 hours post-operatively): higher
Amount of ORM (Number of pills), % Change (Compound I-Vehicle)/Vehicle ([1]; 0-12 hours post-operatively): −15%
Amount of ORM (mg/kg of body weight), % Change (Compound I-Vehicle)/Vehicle ([1]; 0-12 hours post-operatively): −17%
Number of patients who did not use oral rescue medication ([1]; 0-12 hours post-operatively): 19 (47.5%) n (%)
Amount of oral rescue medication (Number of pills), Mean (SD) ([1]; 0-12 hours post-operatively): 1.40 (1.780) Number of pills
Amount of oral rescue medication (Number of pills), Range ([1]; 0-12 hours post-operatively): 0.0-6.0 Number of pills
Amount of oral rescue medication (mg/kg of body weight), Range ([1]; 0-12 hours post-operatively): 0.0-28.7 mg/kg of body weight
Amount of oral rescue medication (mg/kg of body weight), Mean (SD) ([1]; 0-12 hours post-operatively): 6.10 (8.062) mg/kg of body weight
Amount of ORM (Number of pills), % Change (Compound I-Vehicle)/Vehicle ([1]; 0-24 hours post-operatively): −16%
Amount of ORM (mg/kg of body weight), % Change (Compound I-Vehicle)/Vehicle ([1]; 0-24 hours post-operatively): −18%
Number of patients who did not use oral rescue medication ([1]; 0-24 hours post-operatively): 16 (40.0%) n (%)
Amount of oral rescue medication (Number of pills), Mean (SD) ([1]; 0-24 hours post-operatively): 2.35 (2.751) Number of pills
Amount of oral rescue medication (Number of pills), Range ([1]; 0-24 hours post-operatively): 0.0-10.0 Number of pills
Amount of oral rescue medication (mg/kg of body weight), Range ([1]; 0-24 hours post-operatively): 0.0-47.9 mg/kg of body weight
Amount of oral rescue medication (mg/kg of body weight), Mean (SD) ([1]; 0-24 hours post-operatively): 10.17 (12.335) mg/kg of body weight
Number of patients who did not use oral rescue medication ([1]; 0-2 days post-operatively): 11 (27.5%) n (%)
Amount of ORM (Number of pills), % Change (Compound I-Vehicle)/Vehicle ([1]; 0-48 hours post-operatively): −13%
Amount of ORM (mg/kg of body weight), % Change (Compound I-Vehicle)/Vehicle ([1]; 0-48 hours post-operatively): −14%
Amount of oral rescue medication (Number of pills), Mean (SD) ([1]; 0-48 hours post-operatively): 4.05 (4.466) Number of pills
Amount of oral rescue medication (Number of pills), Range ([1]; 0-48 hours post-operatively): 0.0-16.0 Number of pills
Amount of oral rescue medication (mg/kg of body weight), Range ([1]; 0-48 hours post-operatively): 0.0-76.6 mg/kg of body weight
Amount of oral rescue medication (mg/kg of body weight), Mean (SD) ([1]; 0-48 hours post-operatively): 17.59 (19.850) mg/kg of body weight
Number of patients who did not use oral rescue medication ([1]; 0-3 days post-operatively): 11 (27.5%) n (%)
Amount of ORM (Number of pills), % Change (Compound I-Vehicle)/Vehicle ([1]; 0-72 hours post-operatively): −14%
Amount of ORM (mg/kg of body weight), % Change (Compound I-Vehicle)/Vehicle ([1]; 0-72 hours post-operatively): −15%
Amount of oral rescue medication (Number of pills), Mean (SD) ([1]; 0-72 hours post-operatively): 4.33 (4.896) Number of pills
Amount of oral rescue medication (Number of pills), Range ([1]; 0-72 hours post-operatively): 0.0-21.0 Number of pills
Amount of oral rescue medication (mg/kg of body weight), Range ([1]; 0-72 hours post-operatively): 0.0-87.4 mg/kg of body weight
Amount of oral rescue medication (mg/kg of body weight), Mean (SD) ([1]; 0-72 hours post-operatively): 18.70 (21.509) mg/kg of body weight
Amount of ORM (mg/kg of body weight) during compound I vs. Vehicle treatment ([1]; every time interval): less
ORM taken during compound I vs. Vehicle treatment (number of pills) ([1]; every time interval during the study): less ORM taken
Epithelial defect area, Difference compound I-Vehicle, mean (SD) ([2]; Day 1): 2.98 (27.33) mm^2
Epithelial defect size, Area, Raw mean (SD) ([2]; Day 1): 220.15 (32.26) mm^2
Epithelial defect area, Difference compound I-Vehicle, mean (SD) ([2]; Day 2): 11.23 mm^2 and 11.23 (32.30) mm^2
Epithelial defect size, Area, Raw mean (SD) ([2]; Day 2): 83.02 (32.08) mm^2
Epithelial defect area, Difference compound I-Vehicle, mean (SD) ([2]; Day 3): 1.02 (8.78) mm^2
Epithelial defect size, Area, Raw mean (SD) ([2]; Day 3): 6.75 (12.66) mm^2
Epithelial defect area, Difference compound I-Vehicle, mean (SD) ([2]; Day 4): 0.31 (2.11) mm^2
Epithelial defect size, Area, Raw mean (SD) ([2]; Day 4): 0.39 (2.04) mm^2
Epithelial defect area, Difference compound I-Vehicle, mean (SD) ([2]; Day 8): 0.00 (0.00) mm^2
Epithelial defect size, Area, Raw mean (SD) ([2]; Day 8): 0.00 (0.00) mm^2
Wound healing compared to Vehicle ([2]; after PRK surgery): no delay in wound healing
